The assay addresses T1, GVIA iPLA2 (Homo sapiens, UniProt O60733).
T1 sequence (O60733 1-806): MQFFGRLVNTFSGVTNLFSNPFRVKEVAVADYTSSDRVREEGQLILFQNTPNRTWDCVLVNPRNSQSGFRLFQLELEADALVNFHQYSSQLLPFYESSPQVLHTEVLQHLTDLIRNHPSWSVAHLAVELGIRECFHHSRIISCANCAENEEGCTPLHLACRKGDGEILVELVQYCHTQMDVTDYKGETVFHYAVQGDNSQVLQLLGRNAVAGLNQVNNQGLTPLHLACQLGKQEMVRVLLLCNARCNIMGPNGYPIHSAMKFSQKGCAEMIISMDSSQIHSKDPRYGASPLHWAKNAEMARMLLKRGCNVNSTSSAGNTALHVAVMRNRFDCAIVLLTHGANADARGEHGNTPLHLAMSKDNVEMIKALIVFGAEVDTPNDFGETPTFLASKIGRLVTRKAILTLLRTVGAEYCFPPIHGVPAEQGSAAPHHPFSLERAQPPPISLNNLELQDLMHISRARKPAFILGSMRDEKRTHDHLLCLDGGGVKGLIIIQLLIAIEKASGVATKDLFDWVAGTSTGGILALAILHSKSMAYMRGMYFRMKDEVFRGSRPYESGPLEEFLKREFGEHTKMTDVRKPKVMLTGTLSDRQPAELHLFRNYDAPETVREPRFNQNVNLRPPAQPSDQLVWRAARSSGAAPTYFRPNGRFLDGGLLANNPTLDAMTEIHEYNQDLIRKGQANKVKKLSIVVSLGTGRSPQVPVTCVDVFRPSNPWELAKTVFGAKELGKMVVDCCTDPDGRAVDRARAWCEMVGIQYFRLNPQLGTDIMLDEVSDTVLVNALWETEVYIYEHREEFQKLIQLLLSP
Briefly: mixed micelle modified Dole assay, GVIA iPLA2. To be noted: read-out: IC50 (converted from XI(50)); 0.091 mole fraction corresponds to 50 μM. In kind it is biochemical.

The values below come from publication PMC5053890 (Bioorganic & medicinal chemistry, 2016).

Each structure is given as a SMILES string. pIC50: −log10 of the molar value.

On to `CCCCCCCCSCC(=O)C(F)(F)F` [Compound 3], for which the negative logarithm of the IC50 (pIC50) was 6.96.

As a reminder, the pIC50 is the IC50 on a negative log10 scale, so that one unit is a factor of ten.
